Laboratory results published in US9023987B2, “Cell-permeable peptide” (Seoul National University R&DB Foundation, priority 2010, dated 2015).

Assays:
[1] = tested on: human mesenchymal stem cells (hMSC); assay: Cell differentiation ability by alkaline phosphatase (ALP) staining; assay type: cell-based; design: dose or concentration left out as unconfirmed; conditions: hard tissue-forming medium, 14 days, compared with PBS; FIG. 4A d-f
Procedure: In order to detect alkaline phosphate (ALP), which is a label material shown at the initial stage of bone differentiation, for cell differentiation ability of the cell permeable peptide-bone differentiation inducing sequence conjugate, human mesenchymal stem cells (hMSC) were seeded in a 24-well plate at 1×10^3/well, and then treated with the cell permeable peptide-bone differentiation inducing sequence conjugate synthesized from Example 1 and the bone differentiation inducing sequence of Comparative Example 2 of […] for each, and then incubated in a hard tissue forming medium for 14 days. The hard tissue-forming medium contained an MSCBM medium containing 15% FBS (fetal bovine serum), […] of L-ascorbic acid, 10^−7 M dexamethasone, 1% antibiotic-antimycotic solution, and 10 mM beta-glycerol phosphate. After completion of the incubation, the medium was removed, and then the cells were washed with phosphate buffer solution (PBS) twice. The cells were fixed with 10% NBF at room temperature for 20 minutes, and then washed with a phosphate buffer solution (PBS) twice. Then, staining was conducted using the Alkaline phosphatase detection kit (Millipore, USA) by the experiment method recommended by the manufacture.

[2] = target: T1, human-derived Smurf1 protein (Homo sapiens, UniProt Q9HCE7); assay: Affinity to Smurf1 by surface plasmon resonance (BIACORE T100); assay type: binding; conditions: 10 mM analyte over Smurf1 coupled to CM5 chip; FIG. 2A
T1 construct: purchased Origene Technologies (Rockville, Md., USA)
T1 sequence (Q9HCE7 whole entry): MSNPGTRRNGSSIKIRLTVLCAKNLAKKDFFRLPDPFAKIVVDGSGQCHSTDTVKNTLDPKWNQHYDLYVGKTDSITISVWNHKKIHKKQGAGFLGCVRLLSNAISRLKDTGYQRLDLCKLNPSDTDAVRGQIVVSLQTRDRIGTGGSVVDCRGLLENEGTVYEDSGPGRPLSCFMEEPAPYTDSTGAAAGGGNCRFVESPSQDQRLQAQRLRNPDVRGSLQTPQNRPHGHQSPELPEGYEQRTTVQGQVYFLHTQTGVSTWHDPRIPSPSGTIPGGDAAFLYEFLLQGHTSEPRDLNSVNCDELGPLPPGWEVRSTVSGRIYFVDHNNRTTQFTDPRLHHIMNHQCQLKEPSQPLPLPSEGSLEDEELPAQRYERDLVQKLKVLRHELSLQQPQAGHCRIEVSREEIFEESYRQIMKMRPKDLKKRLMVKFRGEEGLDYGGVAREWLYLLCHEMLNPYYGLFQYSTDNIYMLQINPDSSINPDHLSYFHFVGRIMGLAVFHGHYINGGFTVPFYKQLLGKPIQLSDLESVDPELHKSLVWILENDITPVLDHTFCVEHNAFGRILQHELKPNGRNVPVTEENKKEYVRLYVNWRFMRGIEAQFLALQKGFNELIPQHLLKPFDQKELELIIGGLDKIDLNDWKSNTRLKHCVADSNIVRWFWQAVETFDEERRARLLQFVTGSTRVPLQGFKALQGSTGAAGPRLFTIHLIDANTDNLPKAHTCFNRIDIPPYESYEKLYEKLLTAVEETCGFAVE
Procedure: In order to confirm the affinity between cell permeable peptide-bone differentiation inducing sequence conjugate and Smurf1 by a chemical method, a human-derived Smurf1 protein acting as a ligand in the present experiment was purchased from Origene Technologies (Rockville, Md., USA). The protein ([…]) was coupled to a gold coated surface of a CM5 chip (BIACORE AB, Sweden) on which amino groups are bounded using an EDC/NHS kit (BIACORE AB, Sweden). (Instead of this experimental method, ‘Immobilization’ integrated into the BIACORE® T100 (BIACORE AB, Sweden) software used by the present inventors may be used). In this case, in order to find a suitable pH condition at which the protein may bind to the amino group in the CM5 chip, a method called ‘pH scouting’ was performed, thereby finding a pH condition. As a method of ‘pH scouting’, a method integrated in the BIACORE® T100 (BIACORE AB, Sweden) software used by the present inventors may be used. […]

[3] = target: T1, human-derived Smurf1 protein; assay: Slot-blot assay of binding to Smurf1
Text: In order to confirm presence or absence of the active site of the cell permeable peptide-bone differentiation inducing sequence conjugate synthesized by the method in Example 1 for binding to Smurf1 and binding degrees according to the concentration, a slot blot assay were used. This experimental method is a molecular biological method of positioning a protein on a membrane and sucking the protein in the other side to strongly attach the protein on a surface of the membrane, directly positioning a material to be confirm an interaction with the attached protein and culturing for a predetermine time to induce the binding, and blotting them using antibodies to confirm the interaction (affinity) between the protein and the material through a difference of each Dot.
1 μg of human-derived Smurf1 protein was input […] per well using a slot blot device (Hoefer, Pharmacia Biotech, USA) and blotted on a predetermined position on a nitrocellulose membrane (2 μm, Pall, USA) in a vacuum state. After blotting, the nitrocellulose membrane was blocked with phosphate buffer solution containing 0.5% Tween® 20 at room temperature for 30 minutes, and then completely dried. […]

[4] = tested on: Smad1/5/8 phosphorylation, RUNX2; assay: Western blot of signal transduction proteins in cytoplasmic and nuclear fractions; assay type: cell-based, human; conditions: 10 μm, 1.5 hours, hMSC, compared with PBS; FIG. 4D
Procedure: In order to confirm cell differentiation ability of the cell permeable peptide-bone differentiation inducing sequence conjugate, using proteins serving an important role in signal transduction pathways in the cytoplasmic fraction and the nuclear fraction, human mesenchymal stem cells (hMSC) were seeded in each well of a 10 cm-dish at 1×10^6/well, and then incubated in a general medium for 20 hours (overnight) for cell stabilization. After 20 hours of the incubation, the cells were treated with the cell permeable peptide-bone differentiation inducing sequence conjugate and the bone differentiation inducing sequence of Comparative Example 2 of 10 μm for each for 1.5 hours.
After that, in order to compare the expression degree of intercellular protein, in each of the cells treated with the cell permeable peptide-bone differentiation inducing sequence conjugate of Example 1 and the bone differentiation inducing sequence of Comparative Example 2, cytoplasm and nucleus were separated using NE-PER nuclear and cytoplasmic extraction reagents according to the manufacturer's instructions (Pierce, USA). The protein in the hMSC lysis solution containing the separated cytoplasm and nucleus was determined by Bradford's assay, and then subjected to electrophoresis using 10% polyacrylamide gel at 120 volts for 4 hours. […]

## NH2-GAPPPADSAP-SSRKKNPNCRRH-C-COONH2 (H-GAPPPADSAPSSRKKNPNCRRHC-NH2; cysteine pairing not given here) [Example 1]
[1]
  differentiation into osteoblast, alkaline phosphatase staining: relatively strong staining degree of alkaline phosphatase
[2]
  affinity to Smurf1: 600 RU
[3]; 0.1, 1, 10, and 100 mM, 4° C., 20 hours, FIG. 2D
  concentration at which an increase of dot size began: 10 mM
[3]; biotinylated domains, slot blot, FIG. 2C
  binding to Smurf1 protein detected as dot: a dot was confirmed
[4]
  RUNX2 in the nucleus (western blot): noticeably increased RUNX2
  phosphorylation of Smad1/5/8 (western blot): exhibited Smad 1/5/8 phosphorylation
